The source of these data is ChEMBL document CHEMBL5465560, “Selectivity Literature for EUbOPEN Chemogenomic Library” (2024).

Structures are written as SMILES.

For one assay, the target named is Ephrin type-A receptor 4 (Homo sapiens, UniProt P54764). The assay can be described thus: Selectivity interaction (KinomeScan (DiscoverX)) EUB0001079a EPHA4. As to conditions: at 1 µM.
Assay [1] has as its target T1, Myosin light chain kinase family member 4 (Homo sapiens) (UniProt Q86YV6).
T1 sequence (whole entry): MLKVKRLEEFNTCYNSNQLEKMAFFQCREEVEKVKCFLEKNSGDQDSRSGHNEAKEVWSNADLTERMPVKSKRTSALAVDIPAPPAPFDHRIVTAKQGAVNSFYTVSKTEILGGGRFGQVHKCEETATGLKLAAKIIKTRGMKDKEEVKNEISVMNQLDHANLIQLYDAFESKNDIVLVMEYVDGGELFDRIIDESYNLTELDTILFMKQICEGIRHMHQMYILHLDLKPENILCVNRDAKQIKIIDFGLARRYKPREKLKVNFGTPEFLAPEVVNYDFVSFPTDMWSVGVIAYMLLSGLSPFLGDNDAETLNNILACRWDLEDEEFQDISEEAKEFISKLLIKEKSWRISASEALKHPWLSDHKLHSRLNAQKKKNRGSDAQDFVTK
The experiment in a line: Selectivity interaction (KinomeScan (DiscoverX)) EUB0000092b MYLK4. The following applies: at 10 µM.

The target of assay [2] is T2, Tyrosine-protein kinase TXK (Homo sapiens) (UniProt P42681).
T2 sequence (whole entry): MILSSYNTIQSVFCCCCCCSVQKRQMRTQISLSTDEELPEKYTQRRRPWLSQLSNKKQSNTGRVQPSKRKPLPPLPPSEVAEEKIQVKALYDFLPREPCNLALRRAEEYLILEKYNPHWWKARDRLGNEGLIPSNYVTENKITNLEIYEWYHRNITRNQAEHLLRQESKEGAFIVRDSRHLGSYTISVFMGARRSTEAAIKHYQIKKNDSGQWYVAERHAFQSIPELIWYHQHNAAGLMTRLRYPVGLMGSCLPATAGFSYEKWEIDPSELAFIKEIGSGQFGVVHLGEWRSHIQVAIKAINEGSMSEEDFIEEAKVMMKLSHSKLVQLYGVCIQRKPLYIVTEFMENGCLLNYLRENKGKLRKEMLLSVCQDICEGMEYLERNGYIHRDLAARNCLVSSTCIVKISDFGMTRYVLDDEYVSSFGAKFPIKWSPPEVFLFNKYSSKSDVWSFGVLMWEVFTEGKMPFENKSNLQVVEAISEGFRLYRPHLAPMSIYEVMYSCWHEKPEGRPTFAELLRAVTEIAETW
The experiment in a line: Selectivity interaction (KinomeScan (DiscoverX)) EUB0000655a TXK. As to conditions: at 10 µM.

Assay [3] addresses Mitogen-activated protein kinase kinase kinase kinase 1 (Homo sapiens) (UniProt Q92918). The experiment in a line: Selectivity interaction (KinomeScan (DiscoverX)) EUB0000655a MAP4K1. As to conditions: at 10 µM.
Assay [4] deals with Tyrosine-protein kinase Srms (Homo sapiens) (UniProt Q9H3Y6). The experiment in a line: Selectivity interaction (Kinase panel (Eurofins)) EUB0001564a SRMS. As to conditions: at 1 µM.
Assay [5] deals with Protein arginine N-methyltransferase 5 (Homo sapiens, UniProt O14744). The experiment in a line: Selectivity interaction (Transferase panel (protein, RNA, and DNA methyltransferases. and EP300 (acetyltransferase))) EUB0000270b PRMT5.
Assay [6] concerns the target T3, Serine/threonine-protein kinase LATS2 (Homo sapiens) (UniProt Q9NRM7).
T3 sequence (whole entry): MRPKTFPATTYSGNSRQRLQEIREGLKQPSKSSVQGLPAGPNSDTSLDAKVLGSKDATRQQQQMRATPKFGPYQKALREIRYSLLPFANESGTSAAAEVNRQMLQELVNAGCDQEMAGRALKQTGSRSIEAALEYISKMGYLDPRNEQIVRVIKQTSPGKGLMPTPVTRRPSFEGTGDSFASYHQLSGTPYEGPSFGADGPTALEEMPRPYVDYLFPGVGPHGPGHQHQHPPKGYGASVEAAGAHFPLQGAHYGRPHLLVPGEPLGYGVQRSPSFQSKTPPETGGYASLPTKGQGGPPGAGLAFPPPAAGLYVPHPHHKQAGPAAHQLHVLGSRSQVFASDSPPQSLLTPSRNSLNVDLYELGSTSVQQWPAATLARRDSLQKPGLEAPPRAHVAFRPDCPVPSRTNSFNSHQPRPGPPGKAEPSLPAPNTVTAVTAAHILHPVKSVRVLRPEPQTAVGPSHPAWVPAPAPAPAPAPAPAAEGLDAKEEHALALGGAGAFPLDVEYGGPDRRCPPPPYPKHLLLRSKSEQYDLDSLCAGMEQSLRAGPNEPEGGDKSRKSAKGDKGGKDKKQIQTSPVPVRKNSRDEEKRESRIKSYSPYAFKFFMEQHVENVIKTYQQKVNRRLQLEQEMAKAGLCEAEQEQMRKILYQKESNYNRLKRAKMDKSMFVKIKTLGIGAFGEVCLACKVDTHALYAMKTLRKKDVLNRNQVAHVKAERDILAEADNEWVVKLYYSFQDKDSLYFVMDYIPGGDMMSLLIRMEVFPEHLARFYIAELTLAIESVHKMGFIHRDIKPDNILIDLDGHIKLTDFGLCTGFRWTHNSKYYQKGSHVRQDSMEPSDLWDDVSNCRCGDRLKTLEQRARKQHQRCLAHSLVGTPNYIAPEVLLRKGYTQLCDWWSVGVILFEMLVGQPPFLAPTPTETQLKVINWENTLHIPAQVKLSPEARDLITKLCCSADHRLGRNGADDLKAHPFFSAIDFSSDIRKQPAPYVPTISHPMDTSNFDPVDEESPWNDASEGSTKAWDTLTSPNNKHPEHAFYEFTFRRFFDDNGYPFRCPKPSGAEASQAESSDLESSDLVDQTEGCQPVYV
The assay can be described thus: Selectivity interaction (KinomeScan (DiscoverX)) EUB0000045b LATS2.

For assay [7], the system named is Fibroblast growth factor receptor 3 (Homo sapiens), P22607 [G697C]. The experiment in a line: (§1) Selectivity interaction (KinomeScan (DiscoverX)) EUB0000607a FGFR3. The following applies: at 10 µM.
Assay [8] has as its target Fibroblast growth factor receptor 3 (Homo sapiens, UniProt P22607). The description is as §1. As to conditions: at 10 µM.
The target of assay [9] is T3, Serine/threonine-protein kinase LATS2 (Homo sapiens). The assay can be described thus: Selectivity interaction (KinomeScan (DiscoverX)) EUB0000229b LATS2. As to conditions: at 10 µM.

Chain of Protein arginine N-methyltransferase 5 (O14744 whole entry): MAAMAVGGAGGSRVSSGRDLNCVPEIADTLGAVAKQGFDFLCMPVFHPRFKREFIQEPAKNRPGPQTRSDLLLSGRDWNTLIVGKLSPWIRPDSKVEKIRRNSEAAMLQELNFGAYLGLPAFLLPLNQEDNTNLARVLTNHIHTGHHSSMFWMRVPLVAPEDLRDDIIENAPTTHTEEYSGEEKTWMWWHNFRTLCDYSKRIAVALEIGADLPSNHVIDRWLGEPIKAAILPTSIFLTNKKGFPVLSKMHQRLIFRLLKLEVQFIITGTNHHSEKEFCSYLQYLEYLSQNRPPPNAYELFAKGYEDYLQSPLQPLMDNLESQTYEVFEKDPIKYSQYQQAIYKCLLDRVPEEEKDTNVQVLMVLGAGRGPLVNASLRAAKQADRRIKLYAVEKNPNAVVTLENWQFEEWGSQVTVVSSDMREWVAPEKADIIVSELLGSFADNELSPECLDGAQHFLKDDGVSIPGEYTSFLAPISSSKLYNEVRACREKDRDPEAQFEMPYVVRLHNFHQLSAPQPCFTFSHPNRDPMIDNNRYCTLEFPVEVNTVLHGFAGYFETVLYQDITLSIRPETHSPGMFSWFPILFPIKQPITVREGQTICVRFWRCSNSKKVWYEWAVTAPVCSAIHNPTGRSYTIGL
Chain of Tyrosine-protein kinase Srms (Homo sapiens) (Q9H3Y6 whole entry): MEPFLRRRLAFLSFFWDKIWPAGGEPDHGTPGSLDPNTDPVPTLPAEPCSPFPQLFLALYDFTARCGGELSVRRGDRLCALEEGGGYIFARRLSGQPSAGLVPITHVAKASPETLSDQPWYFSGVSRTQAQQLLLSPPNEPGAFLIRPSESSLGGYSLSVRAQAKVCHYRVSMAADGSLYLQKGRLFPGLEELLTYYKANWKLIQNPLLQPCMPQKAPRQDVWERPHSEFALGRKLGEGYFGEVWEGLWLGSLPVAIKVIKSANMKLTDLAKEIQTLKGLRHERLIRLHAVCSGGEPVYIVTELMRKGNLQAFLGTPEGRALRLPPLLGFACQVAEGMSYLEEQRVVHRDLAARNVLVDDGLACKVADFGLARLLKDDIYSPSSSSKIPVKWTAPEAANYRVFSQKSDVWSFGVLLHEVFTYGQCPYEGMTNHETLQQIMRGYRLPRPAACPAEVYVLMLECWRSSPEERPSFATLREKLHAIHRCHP
Chain of Mitogen-activated protein kinase kinase kinase kinase 1 (Homo sapiens) (Q92918 whole entry, looked up): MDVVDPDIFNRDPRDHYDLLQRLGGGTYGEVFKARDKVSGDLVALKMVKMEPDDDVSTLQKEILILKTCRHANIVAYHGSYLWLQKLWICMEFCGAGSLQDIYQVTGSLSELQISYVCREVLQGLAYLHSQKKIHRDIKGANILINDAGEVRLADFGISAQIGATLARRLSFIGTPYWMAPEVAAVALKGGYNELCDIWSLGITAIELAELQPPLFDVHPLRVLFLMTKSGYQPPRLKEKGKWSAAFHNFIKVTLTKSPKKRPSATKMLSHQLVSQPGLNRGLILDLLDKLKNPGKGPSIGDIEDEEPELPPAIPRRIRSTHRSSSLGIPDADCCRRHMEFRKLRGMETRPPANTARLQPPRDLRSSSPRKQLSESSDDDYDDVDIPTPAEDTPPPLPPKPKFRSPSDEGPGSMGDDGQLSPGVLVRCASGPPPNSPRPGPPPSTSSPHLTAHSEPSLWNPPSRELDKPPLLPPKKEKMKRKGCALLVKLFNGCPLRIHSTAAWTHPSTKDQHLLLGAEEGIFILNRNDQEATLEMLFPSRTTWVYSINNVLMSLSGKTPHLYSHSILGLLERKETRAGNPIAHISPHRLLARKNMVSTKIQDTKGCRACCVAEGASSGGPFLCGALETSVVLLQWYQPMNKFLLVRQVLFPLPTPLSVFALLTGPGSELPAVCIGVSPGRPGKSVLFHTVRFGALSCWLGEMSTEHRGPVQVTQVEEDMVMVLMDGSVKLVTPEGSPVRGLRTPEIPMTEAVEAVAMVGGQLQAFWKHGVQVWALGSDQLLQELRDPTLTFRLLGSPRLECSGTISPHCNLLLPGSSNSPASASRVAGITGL
Chain of Fibroblast growth factor receptor 3 (P22607 23-806 limits assumed): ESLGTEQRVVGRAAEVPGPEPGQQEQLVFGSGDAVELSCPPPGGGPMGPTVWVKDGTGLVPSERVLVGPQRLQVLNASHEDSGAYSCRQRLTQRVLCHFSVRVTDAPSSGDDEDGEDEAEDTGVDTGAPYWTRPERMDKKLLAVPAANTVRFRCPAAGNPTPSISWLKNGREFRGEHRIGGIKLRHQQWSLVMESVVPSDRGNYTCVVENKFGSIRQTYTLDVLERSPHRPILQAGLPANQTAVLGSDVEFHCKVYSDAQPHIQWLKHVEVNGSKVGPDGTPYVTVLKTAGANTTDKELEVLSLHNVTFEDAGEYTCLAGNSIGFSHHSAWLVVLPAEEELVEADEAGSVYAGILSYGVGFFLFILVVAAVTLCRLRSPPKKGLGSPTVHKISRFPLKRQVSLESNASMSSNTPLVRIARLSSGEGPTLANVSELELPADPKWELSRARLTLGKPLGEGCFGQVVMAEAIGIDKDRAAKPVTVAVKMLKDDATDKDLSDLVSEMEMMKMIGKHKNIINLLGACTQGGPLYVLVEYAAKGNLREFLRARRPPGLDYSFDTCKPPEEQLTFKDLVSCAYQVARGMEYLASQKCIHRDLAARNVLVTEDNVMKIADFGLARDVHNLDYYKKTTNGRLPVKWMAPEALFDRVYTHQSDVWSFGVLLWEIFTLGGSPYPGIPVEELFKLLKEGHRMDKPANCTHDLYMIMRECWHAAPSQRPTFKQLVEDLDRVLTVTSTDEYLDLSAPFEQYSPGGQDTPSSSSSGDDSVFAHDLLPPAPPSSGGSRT
Chain of Ephrin type-A receptor 4 (P54764 whole entry): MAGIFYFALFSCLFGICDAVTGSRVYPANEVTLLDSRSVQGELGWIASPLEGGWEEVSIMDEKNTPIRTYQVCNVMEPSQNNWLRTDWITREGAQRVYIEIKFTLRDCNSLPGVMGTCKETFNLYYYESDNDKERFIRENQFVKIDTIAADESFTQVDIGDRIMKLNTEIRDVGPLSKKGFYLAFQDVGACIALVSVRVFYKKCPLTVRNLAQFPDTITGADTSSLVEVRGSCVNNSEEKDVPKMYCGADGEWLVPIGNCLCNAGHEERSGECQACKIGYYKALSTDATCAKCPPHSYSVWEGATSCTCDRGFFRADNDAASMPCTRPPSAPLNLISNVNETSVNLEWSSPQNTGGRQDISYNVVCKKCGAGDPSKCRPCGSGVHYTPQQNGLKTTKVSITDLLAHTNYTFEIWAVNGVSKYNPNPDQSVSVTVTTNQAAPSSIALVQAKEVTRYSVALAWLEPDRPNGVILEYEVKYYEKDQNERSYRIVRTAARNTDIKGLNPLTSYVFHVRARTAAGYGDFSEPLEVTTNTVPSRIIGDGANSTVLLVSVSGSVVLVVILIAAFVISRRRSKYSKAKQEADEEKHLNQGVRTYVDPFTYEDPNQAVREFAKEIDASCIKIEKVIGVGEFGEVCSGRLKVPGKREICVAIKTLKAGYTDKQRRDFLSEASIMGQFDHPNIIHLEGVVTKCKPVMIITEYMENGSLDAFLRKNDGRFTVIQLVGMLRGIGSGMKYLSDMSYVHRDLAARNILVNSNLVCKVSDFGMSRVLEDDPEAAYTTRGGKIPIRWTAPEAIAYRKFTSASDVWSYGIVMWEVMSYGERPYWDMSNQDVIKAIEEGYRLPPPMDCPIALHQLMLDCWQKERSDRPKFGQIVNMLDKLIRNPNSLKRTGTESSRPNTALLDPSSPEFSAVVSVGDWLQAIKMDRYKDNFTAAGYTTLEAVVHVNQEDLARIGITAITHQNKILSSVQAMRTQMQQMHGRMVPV
Chain of Fibroblast growth factor receptor 3 (Homo sapiens), P22607 [G697C] (P22607 whole entry G697C): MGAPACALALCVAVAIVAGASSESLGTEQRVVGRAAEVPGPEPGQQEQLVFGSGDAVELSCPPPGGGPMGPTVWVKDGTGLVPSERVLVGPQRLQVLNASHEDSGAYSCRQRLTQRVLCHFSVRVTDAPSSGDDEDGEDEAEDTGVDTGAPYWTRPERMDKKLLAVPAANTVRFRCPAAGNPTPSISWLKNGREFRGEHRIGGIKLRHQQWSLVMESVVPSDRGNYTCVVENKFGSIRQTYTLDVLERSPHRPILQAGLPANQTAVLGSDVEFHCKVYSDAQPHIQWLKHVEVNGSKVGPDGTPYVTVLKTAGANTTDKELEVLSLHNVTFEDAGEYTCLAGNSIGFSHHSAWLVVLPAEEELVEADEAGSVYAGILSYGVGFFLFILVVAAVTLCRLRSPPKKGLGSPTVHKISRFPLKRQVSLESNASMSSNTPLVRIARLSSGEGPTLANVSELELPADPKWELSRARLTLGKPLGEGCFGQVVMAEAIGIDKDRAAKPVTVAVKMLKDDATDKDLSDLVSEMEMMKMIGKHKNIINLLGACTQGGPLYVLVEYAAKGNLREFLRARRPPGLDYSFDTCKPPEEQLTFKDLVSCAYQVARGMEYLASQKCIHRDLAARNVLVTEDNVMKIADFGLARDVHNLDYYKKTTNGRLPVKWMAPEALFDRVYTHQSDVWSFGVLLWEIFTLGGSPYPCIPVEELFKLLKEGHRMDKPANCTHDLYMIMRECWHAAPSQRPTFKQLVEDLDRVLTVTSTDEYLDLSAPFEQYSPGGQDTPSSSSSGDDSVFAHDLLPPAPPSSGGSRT

Turning to `Nc1cnc(N2CCc3cc(S(=O)(=O)Nc4c(F)cc(Cl)cc4F)cc(N4CCCC4=O)c32)nc1` [TP-020n], the % of control at Ephrin type-A receptor 4 came out at 100%.

`CCC(=O)N1CCN(c2ccc(-n3c(=O)ccc4cnc5ccc(-c6cnc7ccccc7c6)cc5c43)cc2C(F)(F)F)CC1`: in [1], the % of control was 83%.

For `CN(C)CCOc1ccc(-c2nc(-c3ccncc3)c(-c3ccc4c(c3)CC/C4=N\O)[nH]2)cc1`, the % of control in [2] and in [3] was 97% in each case.

For the molecule `CC[C@@H](Nc1c(C#N)c(-c2ccc(-c3cccc(C)c3F)cc2)nc2cnccc12)C(=O)O` [BAY-091], in assay [4], the % of inhibition came out at 26.3%.

Take `Cc1cc(CN)cc(C)c1-c1ncn(C)c1-c1cncn1C`: the % activity in assay [5] (at 1 µM) is above 90%; in assay [5] (at 10 µM), above 80%.

With `C=CC(=O)Nc1cc(-n2c(=O)ccc3cnc4ccc(-c5ccc(NS(C)(=O)=O)cc5)cc4c32)ccc1C`, the % of control in assay [6] (at 1 µM) is 100%; in [6] (at 10 µM) it was 81%.

With `CNC(=O)Nc1ccc(-c2nc(N3CC4CCC(C3)O4)c3cnn(C4CCC5(CC4)OCCO5)c3n2)cc1`, the % of control in assay [7] came out at 74%; in assay [8] it was 83%.

Take `COc1cc(N(C)c2ccnc3ccc(C(F)(F)F)cc23)cc(OC)c1OC`: the % binding in assay [9] amounted to 89%.
